Columns and labels:
Format in all cases: physicochemical
[1] = Stability of nafarelin formulations, one month at 37° C., RP-HPLC
Description: (§1) Stability samples were analyzed using RP-HPLC. The area under the curve for the leuprolide peak divided by the sum of the areas under the curve of all peaks gave % purity. [It should be noted that the data for % concentration presented with the % purity data (Examples 6, 8, 9 and 10) are inconclusive. The analysis methods used to determine % concentration in these experiments were unreliable.]
Formulations of 15% (w/w) nafarelin in either PEG 600 or propylene glycol were prepared as described above for leuprolide and placed in polymeric containers.
The containers were stored at 37° C. for one month in an incubator.
The samples were analyzed using RP-HPLC to determine the chemical stability of the aged formulations.

[2] = Gelation of non-aqueous protic solvent formulations on adding polar aprotic solvent
Excerpt: Thus, these solvents have an anti-gellant effect.

[3] = Stability of goserelin formulations, one month at 37° C., RP-HPLC; details: for % CONCENTRATION: method called unreliable
Description: as §1
Formulations of 40-45% (w/w) goserelin in either PEG 600 or PG/acetate buffer (30:70) were prepared as described above and placed in polymeric containers. The containers were stored at 37° C. for one month in an incubator. The samples were analyzed using RP-HPLC to determine the chemical stability of the aged formulations.

[4] = 15% (w/w) in vehicle PEG 600, one month at 37° C.
[5] = 15% (w/w) in vehicle PG, one month at 37° C.
[6] = 40-45% (w/w) in vehicle PEG 600, one month at 37° C.
[7] = 40-45% (w/w) in vehicle PG/Acetate Buffer(30:70), one month at 37° C.

With `CC(C)C[C@H](NC(=O)[C@@H](Cc1ccc2ccccc2c1)NC(=O)[C@H](Cc1ccc(O)cc1)NC(=O)[C@H](CO)NC(=O)[C@H](Cc1c[nH]c2ccccc12)NC(=O)[C@H](Cc1c[nH]cn1)NC(=O)[C@@H]1CCC(=O)N1)C(=O)N[C@@H](CCCNC(=N)N)C(=O)N1CCC[C@H]1C(=O)NCC(N)=O` [nafarelin] as the compound, how does the “% CONCENTRATION” value [1, 4] read?
Its value is 15.8%.

And the “% PURITY” value [1, 4]?
Its value is 99.4%.

What about the “% CONCENTRATION” value [1, 5] of the same compound?
Its value is 12.9%.

And the “% PURITY” value [1, 5]?
The value was 99.4%.

Which “effect of adding polar aprotic solvents such as DMSO on gelation of the formulation” value (“effect” below) [2] does the source give for `CCNC(=O)[C@@H]1CCCN1C(=O)[C@H](CCCNC(=N)N)NC(=O)[C@H](CC(C)C)NC(=O)[C@@H](CC(C)C)NC(=O)[C@H](Cc1ccc(O)cc1)NC(=O)[C@H](CO)NC(=O)[C@H](Cc1c[nH]c2ccccc12)NC(=O)[C@H](Cc1c[nH]cn1)NC(=O)[C@@H]1CCC(=O)N1` [leuprolide] here?
Its value is “prevents gelation”.

With calcitonin as the compound, how does the “effect” value [2] read?
The value was “prevents gelation”.

With `CC(C)C[C@H](NC(=O)[C@@H](COC(C)(C)C)NC(=O)[C@H](Cc1ccc(O)cc1)NC(=O)[C@H](CO)NC(=O)[C@H](Cc1c[nH]c2ccccc12)NC(=O)[C@H](Cc1cnc[nH]1)NC(=O)[C@@H]1CCC(=O)N1)C(=O)N[C@@H](CCCNC(=N)N)C(=O)N1CCC[C@H]1C(=O)NNC(N)=O` [goserelin] as the compound, how does the “effect” value [2] read?
The value was “prevents gelation”.

What about the “% PURITY” value [3, 6] of the same compound?
The value was 99.3%.

And the “% CONCENTRATION” value [3, 6]?
Its value is 23.6%.

And the “% PURITY” value [3, 7]?
Its value is 98.2%.

What about the “% CONCENTRATION” value [3, 7] of the same compound?
Its value is 49.7%.
